This test has as its system ATF4 luciferase reporter. Briefly: ATF4 luciferase reporter assay (Cell-luc) in HEK293T cells. The test is classed as cell-based, human. The following applies: read-out: IC50 (nM) Cell-luc. An excerpt:
FIGS. 1A-1C. […]
To identify inhibitors of PERK signaling, we engineered a reporter that allows monitoring of PERK activation in living cells. To this end, we constructed a retroviral vector containing the open-reading frame of firefly luciferase fused to the 5′UTR of ATF4 mRNA (FIG. 1A), which contains two short open-reading frames (uORFs) that control ATF4 translation in a stress-dependent manner. After infection, we established a HEK293T cell line harboring the stably integrated reporter. […] This format was used to screen 106,281 compounds covering a wide chemical space. We identified 460 hits (0.43%) (FIG. 1C), which were further validated in an 8-point dose-response assay using the same reporter. We further triaged the compounds by discarding inhibitors that also affected the IRE1 branch of the UPR using an XBP1-luciferase splicing reporter. […] We next used an orthogonal secondary screen that employed a different reporter (bi-cistronic ATF4-dGFPIRES-mCherry) stably integrated into a different cell line (U20S cells). The read-out of this latter screen was microscopy-based, which allowed us to simultaneously assess acute toxicity by cell counting, further reducing the number of viable hits to 77. As a tertiary screen, we tested compounds for their ability to inhibit ER stress-elicited induction of endogenous ATF4 by Western blot analysis. Twenty-eight compounds passed this test and were analyzed further.
ATF4 reporters were constructed by fusing the human full-length ATF4 5′-UTR (NCBI Accession BC022088.2) in front of the firefly luciferase (FLuc) or a destabilized eGFP (dEGFP) coding sequences lacking the initiator methionine.
The ATF4-FLuc reporter was generated by cloning a PCR-product containing the ATF4 full-length 5′-UTR (from +1 position a the transcription start site down to one nucleotide after the terminator codon of the second uORF) flanked by KpnI/XhoI and BglII sites at the 5′ and 3′ ends, respectively, into the KpnI-BglII sites of pCAX-F-XBP1-Luc. The resulting construct, pCAX-ATF4-FLuc, was then digested with BamHI, blunted with T4 DNA polymerase, and then digested with XhoI. The resulting fragment was then subcloned into the retroviral expression vector pLPCX (Clontech) after digesting it with HindIII, blunting with T4 DNA polymerase and then digesting with XhoI to generate pLPCX-ATF4-FLuc (DAA-312). DAA-312 was used to produce recombinant retroviruses using standard methods and the resulting viral supernatant was used to transduce HEK293T cells, which were then subsequently selected with puromycin to generate a stable cell line employed in the primary screen.
HEK293T cells carrying the ATF4 luciferase reporter were plated on poly-lysine coated 384 well plates (Greiner) at 30,000 cells per well. […] Luminescence was measured using One Glo (Promega) as specified by the manufacturer. […] Thus, these were considered unique to the PERK branch and were cherry-picked for further analysis.
Background: Reporter assays use an easily measured gene product as a stand-in for the process of interest.

Where [1] appears, read: Homo sapiens, HEK-293T, ATF4 luciferase reporter, HEK293T cells.
Setting [2] is: ATF4 luciferase reporter, HEK293T cells.

Structures are written as SMILES. Like-named read-outs stand apart in the source and are kept apart here. Bounds are passed on as bounds.

For `C[C@@H]1NC(=O)N[C@@H]1CCCCCC(=O)NCCOCCOCCOCCn1cc([C@]2(NC(=O)COc3ccc(Cl)cc3)CC[C@H](NC(=O)COc3ccc(Cl)cc3)CC2)nn1` [compound 873883], the 50% inhibitory concentration (IC50) under setting [1] is 2600 nM.

On to `O=C(COc1ccc(Cl)cc1)N[C@H]1CC[C@H](NC(=O)COc2ccc(I)cc2)CC1` [compound 914989], for which the half-inhibitory concentration (IC50) under setting [1] came to 5.6 nM.

Regarding `O=C(COc1ccc(I)cc1)N[C@H]1CC[C@H](NC(=O)COc2ccc(I)cc2)CC1` [compound 916784], the IC50 under setting [1] was 51 nM.

On to `O=C(COc1ccc(Cl)cc1)N[C@H]1CC[C@@H](NC(=O)COc2ccc(Cl)cc2Cl)CC1` [compound 754124], for which the 50% inhibitory concentration (IC50) under setting [1] is greater than 10000 nM.

Turning to `C[Si](C)(C)C#Cc1ccc(OCC(=O)N[C@H]2CC[C@H](NC(=O)COc3ccc(C#C[Si](C)(C)C)cc3)CC2)cc1` [compound 916785], under setting [1], the IC50 was greater than 10000 nM.

On to `O=C(COc1ccc(C(F)(F)F)cc1)N[C@H]1CC[C@H](NC(=O)COc2ccc(C(F)(F)F)cc2)CC1` [compound 754127], for which the concentration for half-maximal inhibition (IC50) under setting [1] came to 13 nM.

In the case of `O=C(COc1ccc(Cl)cc1)N[C@H]1CC[C@H](NC(=O)CS(=O)(=O)c2ccc(Cl)cc2)CC1` [compound 757263], the concentration for half-maximal inhibition (IC50) under setting [1] was greater than 10000 nM.

On to `O=C(NCc1ccc(CNC(=O)Oc2ccc(Cl)cc2)cc1)Oc1ccc(Cl)cc1` [compound 885254], for which the IC50 under setting [1] is greater than 10000 nM.

With `O=C(COc1ccc(Cl)cc1)N[C@H]1CC[C@H](NC(=O)CSc2ccc(Cl)cc2)CC1` [compound 757261], the half-inhibitory concentration (IC50) under setting [1] is greater than 10000 nM.

Turning to `O=C(COc1ccccc1)N[C@H]1CC[C@H](NC(=O)COc2ccc(Cl)cc2)CC1` [compound 751593], the IC50 under setting [1] was found to be 384 nM.

Take `CC(=O)c1cccc(OCC(=O)N[C@H]2CC[C@H](NC(=O)COc3ccc(Cl)cc3)CC2)c1` [compound 843984]: under setting [1], the half-inhibitory concentration (IC50) amounted to 1000 nM.

As for `COc1ccc(OCC(=O)N[C@H]2CC[C@H](NC(=O)COc3ccc(OC)cc3)CC2)cc1` [compound 754123], the IC50 under setting [1] is greater than 10000 nM.

As for `O=C(COc1ccc(Cl)cc1)N[C@H]1CC[C@H](NC(=O)COc2ccc(Cl)cc2Cl)CC1` [compound 751594], under setting [1], the 50% inhibitory concentration (IC50) came out at 69 nM.

As for `O=C(COc1ccc(Cl)cc1)N[C@H]1CC[C@H](NC(=O)COc2ccc(Cl)c(F)c2)CC1` [compound 874802], the half-maximal inhibitory concentration (IC50) under setting [1] was found to be 2 nM.

For the molecule `Cc1ccc(OCC(=O)N[C@H]2CC[C@H](NC(=O)COc3ccc(C)cc3)CC2)cc1` [compound 754126], under setting [1], the IC50 was 327 nM.

Consider `N#Cc1ccc(OCC(=O)N[C@H]2CC[C@H](NC(=O)COc3ccc(Cl)cc3)CC2)cc1` [compound 757259], for which the half-inhibitory concentration (IC50) under setting [1] worked out at 263 nM.

In the case of `O=C(COc1ccc(Cl)cc1)N[C@H]1CC[C@H](NC(=O)COc2ccc(Cl)cc2[N+](=O)[O-])CC1` [compound 843987], the IC50 under setting [2] was found to be 75 nM.

For the molecule `O=C(COc1ccc(I)cc1)N[C@H]1CC[C@H](NC(=O)COc2ccc(C3(C(F)(F)F)NN3)cc2)CC1` [compound 916744], the 50% inhibitory concentration (IC50) (Homo sapiens, HEK-293T) was greater than 10000 nM.

As for `O=C(COc1ccc(Cl)cc1)N[C@H]1C[C@H](NC(=O)CSc2ccc(F)cc2)C1` [compound 811772], under setting [1], the half-inhibitory concentration (IC50) was greater than 10000 nM.

For `O=C(COc1ccc(Cl)cc1)N[C@H]1CC[C@H](NC(=O)C[S+]([O-])c2ccc(Cl)cc2)CC1` (stereo partly shown) [compound 757262], the IC50 under setting [1] is greater than 10000 nM.

On to `O=C(COc1ccc(Cl)cc1)N[C@H]1C[C@H](NC(=O)COc2ccc(Cl)cc2)C1` [compound 755855], for which the concentration for half-maximal inhibition (IC50) under setting [1] was determined as 142 nM.

For `O=C(CCCC[C@H]1SCC2NC(=O)NC21)NCCOCCOCCOCCn1cc([C@]2(NC(=O)COc3ccc(Cl)cc3)CC[C@H](NC(=O)COc3ccc(Cl)cc3)CC2)nn1` (stereo partly shown) [compound 835087], under setting [1], the 50% inhibitory concentration (IC50) was 2700 nM.

Regarding `O=C(COc1ccc(Cl)cc1)N[C@H]1CC[C@H](NC(=O)CSc2ccccc2)CC1` [compound 811769], under setting [1], the 50% inhibitory concentration (IC50) was greater than 10000 nM.

Regarding `C#CCN(C(=O)COc1ccc(Cl)cc1)[C@H]1CC[C@H](NC(=O)COc2ccc(Cl)cc2)CC1` [755854.3], the concentration for half-maximal inhibition (IC50) under setting [2] amounted to 100 nM.

In the case of `O=C(COc1ccc(Cl)cc1)N[C@H]1CC[C@H](NC(=O)COc2cc(Cl)cc(Cl)c2)CC1` [compound 912565], under setting [1], the IC50 is greater than 10000 nM.

As a reminder, the IC50 is the concentration needed to halve the response being measured.

These data come from patent US9708247B2, “Modulators of the eIF2alpha pathway” (The Regents of the University of California, priority 2013, dated 2017).
